Assays:
[1] = Selectivity ratio of IC50 for HDAC3 to IC50 for IC50 for HDAC6
Histone deacetylase 1 = Histone deacetylase 1 (Homo sapiens, UniProt Q13547); assay: Inhibition of HDAC1 using Fluor-de-Lys as substrate compound pretreated for 30 mins before substrate addition by fluorescence assay
Histone deacetylase = assay: Inhibition of HDAC in human Hela cell lysate using Fluor-de-Lys as substrate compound pretreated for 30 mins before substrate addition by fluorescence assay; assay type: cell-based
[2] = target: T1, Protein deacetylase HDAC6 (Homo sapiens, UniProt Q9UBN7); assay: Inhibition of HDAC6 using Fluor-de-Lys as substrate compound pretreated for 30 mins before substrate addition by fluorescence assay
T1 sequence (Q9UBN7 whole entry): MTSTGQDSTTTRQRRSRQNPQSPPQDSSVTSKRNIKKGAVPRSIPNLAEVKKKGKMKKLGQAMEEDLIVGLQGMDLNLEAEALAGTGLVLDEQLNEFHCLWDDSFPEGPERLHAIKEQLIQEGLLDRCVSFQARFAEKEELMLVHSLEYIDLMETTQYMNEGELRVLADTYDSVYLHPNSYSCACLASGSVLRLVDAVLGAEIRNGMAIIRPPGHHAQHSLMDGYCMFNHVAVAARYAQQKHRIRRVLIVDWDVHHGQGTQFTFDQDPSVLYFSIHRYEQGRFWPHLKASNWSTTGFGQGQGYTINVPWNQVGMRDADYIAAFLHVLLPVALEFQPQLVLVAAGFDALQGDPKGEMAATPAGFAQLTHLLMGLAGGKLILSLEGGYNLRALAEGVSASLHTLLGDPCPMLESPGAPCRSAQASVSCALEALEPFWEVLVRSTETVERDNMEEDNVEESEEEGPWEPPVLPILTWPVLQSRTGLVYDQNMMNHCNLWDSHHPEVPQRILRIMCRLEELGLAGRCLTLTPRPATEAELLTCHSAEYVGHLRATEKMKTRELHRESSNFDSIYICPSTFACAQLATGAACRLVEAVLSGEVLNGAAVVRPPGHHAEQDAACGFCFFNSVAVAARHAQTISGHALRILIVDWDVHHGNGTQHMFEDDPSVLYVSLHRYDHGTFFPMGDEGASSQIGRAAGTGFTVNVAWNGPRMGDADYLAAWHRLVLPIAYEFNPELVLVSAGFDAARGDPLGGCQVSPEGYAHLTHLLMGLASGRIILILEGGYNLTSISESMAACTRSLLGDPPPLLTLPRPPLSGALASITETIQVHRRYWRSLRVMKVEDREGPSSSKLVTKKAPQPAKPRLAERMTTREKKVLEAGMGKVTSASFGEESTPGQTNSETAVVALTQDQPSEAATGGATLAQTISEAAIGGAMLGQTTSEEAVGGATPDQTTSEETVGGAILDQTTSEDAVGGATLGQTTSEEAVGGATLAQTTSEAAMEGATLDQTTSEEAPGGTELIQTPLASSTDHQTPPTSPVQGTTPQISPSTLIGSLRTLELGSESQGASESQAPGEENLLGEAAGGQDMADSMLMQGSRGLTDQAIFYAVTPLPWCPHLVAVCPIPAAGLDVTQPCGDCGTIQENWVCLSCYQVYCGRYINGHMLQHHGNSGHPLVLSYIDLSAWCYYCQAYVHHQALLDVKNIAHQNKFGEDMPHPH

Histone deacetylase 3 = Histone deacetylase 3 (Homo sapiens, UniProt O15379); assay: Inhibition of HDAC3 using Fluor-de-Lys as substrate compound pretreated for 30 mins before substrate addition by fluorescence assay
Histone deacetylase 3, sequence (O15379 whole entry): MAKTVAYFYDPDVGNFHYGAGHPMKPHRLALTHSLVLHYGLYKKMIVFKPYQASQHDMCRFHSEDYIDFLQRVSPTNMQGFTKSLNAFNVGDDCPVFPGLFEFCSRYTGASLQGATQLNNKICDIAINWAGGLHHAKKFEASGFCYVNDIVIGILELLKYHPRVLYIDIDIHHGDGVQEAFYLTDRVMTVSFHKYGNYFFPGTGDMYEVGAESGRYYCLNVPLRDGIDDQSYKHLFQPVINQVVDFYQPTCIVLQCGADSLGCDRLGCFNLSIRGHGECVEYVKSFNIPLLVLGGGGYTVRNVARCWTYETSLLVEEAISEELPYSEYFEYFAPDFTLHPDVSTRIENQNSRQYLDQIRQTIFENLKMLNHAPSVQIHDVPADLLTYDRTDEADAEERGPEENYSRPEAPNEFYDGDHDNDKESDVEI

Histone deacetylase 1, sequence (Q13547 whole entry): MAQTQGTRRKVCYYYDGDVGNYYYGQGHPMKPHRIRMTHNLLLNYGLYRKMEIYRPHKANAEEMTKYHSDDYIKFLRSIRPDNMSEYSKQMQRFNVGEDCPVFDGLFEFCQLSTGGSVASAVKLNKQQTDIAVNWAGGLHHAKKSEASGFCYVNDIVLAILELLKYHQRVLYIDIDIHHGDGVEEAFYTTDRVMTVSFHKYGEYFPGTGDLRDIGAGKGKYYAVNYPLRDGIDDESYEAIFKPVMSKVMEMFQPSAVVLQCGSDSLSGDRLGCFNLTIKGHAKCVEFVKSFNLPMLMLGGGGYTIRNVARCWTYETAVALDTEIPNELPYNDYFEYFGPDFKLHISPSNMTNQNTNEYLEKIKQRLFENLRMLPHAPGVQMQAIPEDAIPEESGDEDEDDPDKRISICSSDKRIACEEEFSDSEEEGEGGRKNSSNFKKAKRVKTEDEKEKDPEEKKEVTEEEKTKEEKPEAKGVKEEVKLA

Row | SMILES | Ratio IC50 [1] | IC50 (Histone deacetylase 1) | IC50 (Histone deacetylase) | IC50 [2] | IC50 (Histone deacetylase 3)
1 | CCC(CCCCC(=O)Nc1ccccc1)CC(=O)NO (stereo unspecified) | 12 |  |  |  | 
2 | CC(C)(C)C(CCCCC(=O)NO)CC(=O)Nc1ccccc1 (stereo unspecified) | 2 | 990 nM | 1940 nM | 2400 nM | 5400 nM
